Data published in patent publication US5155209A, “R-(+) enantiomeric form of 7-(2, 3-epoxypropoxy) actinomycin D” (priority 1991, dated 1992).

Legend:
B16 = test: Inhibition of growth in vitro of B16 cells; format: cell-based, mouse; conditions: actively growing tumor cells
Method: (§1) The analogues are assayed for in vitro growth inhibitory activity against several experimental tumor lines including human and murine leukemia, mouse melanoma, and human lymphoblastic leukemia.

[1] = system: P388/S lymphocytic leukemia; conditions: cited from earlier work
[2] = system: RNA synthesis in L1210 cells; test: Inhibition of RNA synthesis in L1210 ([5-3H]uridine incorporation); format: cell-based, Murine; conditions: [5-3H]uridine incorporation into RNA; read-out: inhibition of synthesis of nucleic acids in L1210 IC50 RNA
Method: (§2) ^a Drug concentration (micromolor) for 50% reduction of incorporation
(§3) of [methyl^14 C]thymidine into DNA^b and [5^3 H] uridine into
(§4) RNA^c from the rate of incorporation of the same radionucleotides in
(§5) nondrug treated L1210 cells growing actively in vitro.
(§6) Inhibition of nucleic acid synthesis in L1210 lymphoid leukemia cells by (±)-EPA and it optical isomers are assayed. […] To achieve this, a digestion of the nucleic acid pellet with DNase-free RNase enzyme, prior to final pelleting of the DNA precipitate is made to ensure that no more than ±8% contamination from […] into DNA takes place, and for this the necessary correction is made in the data reported in Table V.

[3] = system: DNA synthesis in L1210 cells; test: Inhibition of DNA synthesis in L1210 ([methyl-14C]thymidine incorporation); format: cell-based, Murine; conditions: [methyl-14C]thymidine incorporation into DNA; read-out: inhibition of synthesis of nucleic acids in L1210 IC50 DNA
Method: as §2, §3, §4, §5, §6

P388/ADR [4] = test: Antitumor activity against ip implanted P388/ADR in CDF1 mice; format: in vivo; design: OD (optimal dose of drugs): unit not given here; conditions: for % ILS (percent increase in median life time vs controls) / (surv) number of 60 days survivors/number of animals tested / MST (median survival time): ip qd 1-9, at optimal dose; for OD (optimal dose of drugs): treated ip qd 1-9
Method: ^e Optimal dose of drugs.
^ f Median survival time of tumor bearing mice.
^g Percent increase in median life time in days of drugtreated dying
animals vs those of controls; (survivors), number of 60 days
survivors/number of animals tested in the group.
In order to examine a broader spectrum of activity, these optical isomers are tested in two other mouse leukemia cell lines in vivo. One cell line, P388/ADR, is a derivative of the above P388/S made resistant to intercalating agents like […].

P388/ADR [5] = test: Inhibition of growth in vitro of P388/ADR cells; format: cell-based, mouse; conditions: actively growing tumor cells
Method: as §1

leukemia L1210 = test: Activity in mice bearing leukemia L1210; format: in vivo; conditions: L1210 ip in CDF1 mouse; for OD (optimal dose): ip days 1, 5, 9; for % ILS (percent increase in median life span) / (surv) number of over 60 days survivors/number of animals tested: ip days 1, 5, 9, at optimal dose
Text: ^e OD, optimal dose of drugs in milligrams/killograms per injection,
administered ip on days 1, 5, and 9, following ip inoculation with
^f % ILS, percent increase in median life span in days, of the
tumorbearing drugtreated dying animals when compared with similar tumor
bearing mice but not treated with drugs. (surv), number of over 60 days
survivors/number of animals tested.

B16 melanoma [6] = test: B16 melanoma implanted ip, drug ip (ip-ip) in BDF1 mice; format: in vivo; conditions: B16 ip implanted; for % ILS / (surv) sixty day survivors/number of mice treated / MST (median survival time): drug ip days 1, 5, 9; for OD (optimal dose): drug ip days 1, 5, 9, 0.1 mL vehicle
Method: (§7) Subcutaneously implanted B16 melanoma in BDF1 mice is a slow growing tumor, but its rate of growth becomes faster when it is implanted ip. […] This is not consistent with data in other tumors; however, in this connection it should be pointed out that the combined effects of drugs (or enantiomers in this case) can be manifested in several ways, i.e., they can be synergistic, additive, or subtractive.
(§8) 0.2 ml of brei (tumor weight/Hank's balanced salt solution, (1:5) of B16
(§9) implanted sc or ip into groups of nine BDF1 mice on day 0. Drugs
(§10) administered iv on day 1 or ip on days 1, 5, and 9, following tumor
(§11) administered ip on days 1, 5, and 9. OD, optimal dose in
(§12) milligrams/milliliter of vehicle, and administered iv or ip in 0.1 mL of
(§13) vehicle (5% v/v Me2 SOsaline). MST, median survival times in days of
(§14) tumor bearing and nondrug treated (control) or drugtreated mice. % ILS,
(§15) percent increase in life span of drug treated groups over the control
(§16) group of test animals, excluding survivors. (surv), number of sixty day
(§17) survivors/number of mice treated with drug.

B16 melanoma [7] = test: B16 melanoma implanted sc, drug iv (sc-iv) in BDF1 mice; format: in vivo; conditions: B16 sc implanted; for % ILS / (surv) sixty day survivors/number of mice treated / MST (median survival time): drug iv day 1; for OD (optimal dose): drug iv day 1, 0.1 mL vehicle
Method: as §7, §8, §9, §10, §11, §12, §13, §14, §15, §16, §17

C26 colon carcinoma = C26 colon carcinoma implanted in CDF1 mice, drug ip; format: in vivo; conditions: for % ILS / (surv) sixty day survivors/number of mice treated / MST: drug ip days 1, 5, 9; for OD (optimal dose): drug ip days 1, 5, 9, 0.1 mL vehicle
Method: implantation. Primary colon C26 carcinoma (tripan blue excluding, 2.5
× 10^5 cells/mouse) implanted in CDF1 mice on day 0; drug
as §11, §12, §13, §14, §15, §16, §17

L1210 cells = test: Inhibition of growth of L1210 cells in culture; format: cell-based, Murine
Method: as §1

CCRF-CEM [8] = conditions: cited from earlier work
CCRF-CEM [9] = test: In vitro growth inhibition of CCRF-CEM human lymphoblastic leukemia cells; format: cell-based; conditions: purer (90%) form of isomers
Method: as §1

Row | SMILES | inhibition of growth ID50 B16 (B16) [nM] | % ILS (percent increase in median life time vs controls) (P388/ADR [4]) [%] | (surv) number of 60 days survivors/number of animals tested (P388/ADR [4]) | MST (median survival time) (P388/ADR [4]) [days] | OD (optimal dose of drugs) (P388/ADR [4]) | inhibition of growth ID50 P388/ADR (P388/ADR [5]) [nM] | OD (optimal dose) (leukemia L1210) | % ILS (percent increase in median life span) (leukemia L1210) [%] | (surv) number of over 60 days survivors/number of animals tested (leukemia L1210) | % ILS (B16 melanoma [6]) [%] | (surv) sixty day survivors/number of mice treated (B16 melanoma [6]) | OD (optimal dose) (B16 melanoma [6]) | % ILS (B16 melanoma [7]) [%] | (surv) sixty day survivors/number of mice treated (B16 melanoma [7]) | MST (median survival time) (B16 melanoma [7]) [days] | OD (optimal dose) (B16 melanoma [7]) | % ILS (C26 colon carcinoma) [%] | (surv) sixty day survivors/number of mice treated (C26 colon carcinoma) | MST (C26 colon carcinoma) [days] | OD (optimal dose) (C26 colon carcinoma) | other results
1 | Cc1c2oc3c(C)c(OCC4CO4)cc(C(=O)NC4C(=O)NC(C(C)C)C(=O)N5CCCC5C(=O)N(C)CC(=O)N(C)C(C(C)C)C(=O)OC4C)c3nc-2c(C(=O)NC2C(=O)NC(C(C)C)C(=O)N3CCCC3C(=O)N(C)CC(=O)N(C)C(C(C)C)C(=O)OC2C)c(N)c1=O (racemic) [3b[(±)-EPA]] [7-(2,3-epoxypropoxy) actinomycin D] | 2.5 ± 0.6 | 344 | 4/10 | 40 | 0.65 | 80 ± 11 | 0.05 milligrams/killograms per inje | 186 | 2/9 | 105 | 2/9 | 0.30 milligrams/milliliter of vehic | 64 | 0/9 | 54.0 | 1.0 milligrams/milliliter of vehic | 64 | 0/10 | 36.0 | 0.60 milligrams/milliliter of vehic | antitumor activity in P388/S mouse leukemia in vivo [1]: high antitumor activity; IC50 [2]: 24 ± 4 nM; IC50 [3]: 80 ± 19 nM; % ILS (percent increase in median life time vs controls) (P388/ADR [4]; listed as racemic EPA): 344%; (surv) number of 60 days survivors/number of animals tested (P388/ADR [4]; listed as racemic EPA): four out of 10; inhibition of growth of L1210 cells in culture; ID50 (L1210 cells): 28.7 ± 8.7 nM; antitumor activity in CCRF-CEM cells in vitro (CCRF-CEM [8]): high antitumor activity
2 | Cc1c2oc3c(C)c(OCC4CO4)cc(C(=O)NC4C(=O)NC(C(C)C)C(=O)N5CCCC5C(=O)N(C)CC(=O)N(C)C(C(C)C)C(=O)OC4C)c3nc-2c(C(=O)NC2C(=O)NC(C(C)C)C(=O)N3CCCC3C(=O)N(C)CC(=O)N(C)C(C(C)C)C(=O)OC2C)c(N)c1=O [(R)-(+)-EPA, 7-(2,3-epoxypropoxy) actinomycin D] | 2.0 ± 0.4 | 400 | 4/10 | 45 | 0.30 | 40 ± 12 | 0.05 milligrams/killograms per inje | 199 | 3/9 | 105 | 2/9 | 0.30 milligrams/milliliter of vehic | 70 | 1/9 | 56.0 | 1.0 milligrams/milliliter of vehic | 89 | 2/10 | 41.5 | 0.60 milligrams/milliliter of vehic | MST (median survival time) (B16 melanoma [6]): 39.0 days; inhibition of growth of L1210 cells in culture; ID50 (L1210 cells): 23.1 ± 7.7 nM; 50% growth inhibitory dose (ID50) (CCRF-CEM [9]; listed as R-(+) isomer): 2.0 nM
3 | Cc1c2oc3c(C)c(OCC4CO4)cc(C(=O)NC4C(=O)NC(C(C)C)C(=O)N5CCCC5C(=O)N(C)CC(=O)N(C)C(C(C)C)C(=O)OC4C)c3nc-2c(C(=O)NC2C(=O)NC(C(C)C)C(=O)N3CCCC3C(=O)N(C)CC(=O)N(C)C(C(C)C)C(=O)OC2C)c(N)c1=O [(S)-(-)-EPA, 7-(2,3-epoxypropoxy) actinomycin D] | 3.5 ± 1.0 | 377 | 5/10 | 43 | 0.80 | 135 ± 12 | 0.05 milligrams/killograms per inje | 143 | 1/9 | 74 | – | 0.30 milligrams/milliliter of vehic | 60 | – | 53.0 | 1.0 milligrams/milliliter of vehic | 64 | 1/10 | 36.0 | 0.90 milligrams/milliliter of vehic | MST (median survival time) (B16 melanoma [6]): 33.0 days; inhibition of growth of L1210 cells in culture; ID50 (L1210 cells): 56.8 ± 8.8 nM; 50% growth inhibitory dose (ID50) (CCRF-CEM [9]; listed as S-(-) isomer): 3.5 nM
4 | COc1cccc2c1C(=O)c1c(O)c3c(c(O)c1C2=O)C[C@@](O)(C(=O)CO)C[C@@H]3O[C@H]1C[C@H](N)[C@H](O)[C@H](C)O1 [adriamycin, reference compound] | – | – | – | – | – | – | – | – | – | 224 | 7/9 | 5.0 milligrams/milliliter of vehic | 79 | 1/9 | 59.0 | 5.0 milligrams/milliliter of vehic | 118 | 3/10 | 48.0 | 2.50 milligrams/milliliter of vehic | MST (median survival time) (B16 melanoma [6]): 60.0 days
5 | CO[C@@]12[C@H](COC(N)=O)C3=C(C(=O)C(C)=C(N)C3=O)N1C[C@@H]1N[C@@H]12 [mitomycin, mitomycin C, reference compound] | – | 400 | 5/10 | 45 | 1.0 | – | – | – | – | – | – | – | – | – | – | – | – | – | – | – | –
